The nature of the data set: Estimate of oral bioavailability: gut injection in rat (caprate), exposure in plasma. In kind it is in vivo. To be noted: injection in jejunum, 1000 uM in 55 mg/ml sodium caprate, plasma concentration (pM) at 30 min divided by dosing solution concentration (μM), mean n=4. On the procedure: The GLP-1 derivatives were tested in a concentration of 1000 uM in a solution of 55 mg/ml sodium caprate.
Male Sprague Dawley rats with a body weight upon arrival of approximately 240 g were obtained from Taconic (Denmark) and assigned to the different treatments by simple randomisation, 4 rats per group.
The GLP-1 derivatives were administered in the jejunum either in the proximal part (10 cm distal for the duodenum) or in the mid-intestine (50 cm proximal for the cecum). A PE50-catheter, 10 cm long was inserted into the jejunum, forwarded at least 1.5 cm into the jejunum, and secured before dosing by ligature around the gut and the catheter with 3/0 suture distal to tip to prevent leak or catheter displacement. Catheter was placed without syringe and needle and 2 ml saline was administered into abdomen before closing the incision with wound clips.
100 μl of the respective GLP-1 derivative was injected into the jejunal lumen through the catheter with a 1 ml syringe. Subsequently, 200 μl of air was pushed into the jejunal lumen with another syringe to “flush” the catheter. This syringe was leaved connected to the catheter to prevent flow back into the catheter.
Blood samples (200 ul) were collected at desired intervals (usually at times 0, 10, 30, 60, 120 and 240 min) into EDTA tubes from the tail vein and centrifuged 5 minutes, 10000G, at 4° C. within 20 minutes. […] 12, p. 240-247. The donor beads were coated with streptavidin, while acceptor beads were conjugated with a monoclonal antibody recognising a mid-/C-terminal epitope of the peptide. Another monoclonal antibody, specific for the N-terminus, was biotinylated. The three reactants were combined with the analyte and formed a two-sited immuno-complex. Illumination of the complex released singlet oxygen atoms from the donor beads, which were channeled into the acceptor beads and triggered chemiluminescence which was measured in an Envision plate reader. The amount of light was proportional to the concentration of the compound.
After the blood sampling the rats were sacrificed under anaesthesia and the abdomen was opened to verify correct catheter placement.
The mean (n=4) plasma concentrations (pmol/l) were determined as a function of time.

This is an account of results in US11117947B2, “Double-acylated GLP-1 derivatives” (Novo Nordisk A/S, priority 2011, dated 2021).

Numbered stars: 1 amine (or outer) side, 2 acyl side, 3 side chain; on linkers, the order of the positions; unused ones are H or OH. Side chains are listed from the residue outwards. Peptide text beside a SMILES is read from it. * marks the point of attachment. Decanoyl(10-(4-HOOC-PhO)) = O=C(O)c1ccc(OCCCCCCCCCC(=O)*)cc1; γGlu = O=C(O)[C@H](CCC(=O)[*:2])N[*:1]; C14 diacid = O=C(O)CCCCCCCCCCCCC(=O)*; AEEA = NCCOCCOCC(=O)O

`CC[C@H](C)[C@H](NC(=O)[C@H](Cc1ccccc1)NC(=O)[C@H](CCCCNC(=O)CC[C@H](NC(=O)COCCOCCNC(=O)COCCOCCNC(=O)CCCCCCCCCCCCC(=O)O)C(=O)O)NC(=O)[C@H](CCCNC(=N)N)NC(=O)[C@H](C)NC(=O)[C@H](C)NC(=O)[C@H](CCC(N)=O)NC(=O)[C@H](CCCCNC(=O)CC[C@H](NC(=O)COCCOCCNC(=O)COCCOCCNC(=O)CCCCCCCCCCCCC(=O)O)C(=O)O)NC(=O)[C@H](CCC(=O)O)NC(=O)[C@H](CC(C)C)NC(=O)[C@H](Cc1ccc(O)cc1)NC(=O)[C@H](CO)NC(=O)[C@H](CO)NC(=O)[C@@H](NC(=O)[C@H](CC(=O)O)NC(=O)[C@H](CO)NC(=O)[C@@H](NC(=O)[C@H](Cc1ccccc1)NC(=O)[C@@H](NC(=O)CNC(=O)[C@H](CCC(=O)O)NC(=O)[C@H](C)NC(=O)[C@@H](N)Cc1c[nH]cn1)[C@@H](C)O)[C@@H](C)O)C(C)C)C(=O)N[C@@H](C)C(=O)N[C@@H](Cc1c[nH]cn1)C(=O)N[C@@H](CC(C)C)C(=O)N[C@H](C(=O)NCC(=O)O)C(C)C` [Example 14, N^ε22-[(4S)-4-carboxy-4-[[2-[2-[2-[[2-[2-[2-(13-carboxytridecanoylamino)ethoxy]ethoxy]acetyl]amino]ethoxy]ethoxy]acetyl]amino]butanoyl], N^ε27-[(4S)-4-carboxy-4-[[2-[2-[2-[[2-[2-[2-(13-carboxytridecanoylamino)ethoxy]ethoxy]acetyl]amino]ethoxy]ethoxy]acetyl]amino]butanoyl]-[Lys^22,Arg^26,Lys^27,His^31,Gly^34]-GLP-1-(7-34)-peptide] (H-HAEGTFTSDVSSYLEK([γGlu-AEEA-AEEA-C14 diacid])QAARK([γGlu-AEEA-AEEA-C14 diacid])FIAHLVG-OH; N-terminus and C-terminus assumed): the “Dose-corrected exposure at 30 min” value is given as 121. The same measure for `CC[C@H](C)[C@H](NC(=O)[C@H](Cc1ccccc1)NC(=O)[C@H](CCCCNC(=O)CC[C@H](NC(=O)COCCOCCNC(=O)COCCOCCNC(=O)CCCCCCCCCCCCC(=O)O)C(=O)O)NC(=O)[C@H](CCCNC(=N)N)NC(=O)[C@H](C)NC(=O)[C@H](CCCCNC(=O)CC[C@H](NC(=O)COCCOCCNC(=O)COCCOCCNC(=O)CCCCCCCCCCCCC(=O)O)C(=O)O)NC(=O)[C@H](CCC(N)=O)NC(=O)[C@H](CCC(=O)O)NC(=O)[C@H](CCC(=O)O)NC(=O)[C@H](CC(C)C)NC(=O)[C@H](Cc1ccc(O)cc1)NC(=O)[C@H](CO)NC(=O)[C@H](CO)NC(=O)[C@@H](NC(=O)[C@H](CC(=O)O)NC(=O)[C@H](CO)NC(=O)[C@@H](NC(=O)[C@H](Cc1ccccc1)NC(=O)[C@@H](NC(=O)CNC(=O)[C@H](CCC(=O)O)NC(=O)[C@H](C)NC(=O)[C@@H](N)Cc1c[nH]cn1)[C@@H](C)O)[C@@H](C)O)C(C)C)C(=O)N[C@@H](C)C(=O)N[C@@H](Cc1c[nH]cn1)C(=O)N[C@@H](CC(C)C)C(=O)N[C@H](C(=O)NCC(=O)O)C(C)C` [Example 22, N^ε24-[(4S)-4-carboxy-4-[[2-[2-[2-[[2-[2-[2-(13-carboxytridecanoylamino)ethoxy]ethoxy]acetyl]amino]ethoxy]ethoxy]acetyl]amino]butanoyl], N^ε27-[(4S)-4-carboxy-4-[[2-[2-[2-[[2-[2-[2-(13-carboxytridecanoylamino)ethoxy]ethoxy]acetyl]amino]ethoxy]ethoxy]acetyl]amino]butanoyl]-[Glu^22,Lys^24,Arg^26,Lys^27,His^31,Gly^34]-GLP-1-(7-34)-peptide] (H-HAEGTFTSDVSSYLEEQK([γGlu-AEEA-AEEA-C14 diacid])ARK([γGlu-AEEA-AEEA-C14 diacid])FIAHLVG-OH): 275. The same measure for `CC[C@H](C)[C@H](NC(=O)[C@H](Cc1ccccc1)NC(=O)[C@H](CCCCNC(=O)COCCOCCNC(=O)COCCOCCNC(=O)CC[C@H](NC(=O)CCCCCCCCCOc1ccc(C(=O)O)cc1)C(=O)O)NC(=O)[C@H](CCCNC(=N)N)NC(=O)[C@@H](NC(=O)[C@H](C)NC(=O)[C@H](CCC(N)=O)NC(=O)CNC(=O)[C@H](CCC(=O)O)NC(=O)[C@H](CC(C)C)NC(=O)[C@H](Cc1ccc(O)cc1)NC(=O)[C@H](CO)NC(=O)[C@H](CO)NC(=O)[C@@H](NC(=O)[C@H](CC(=O)O)NC(=O)[C@H](CO)NC(=O)[C@@H](NC(=O)[C@H](Cc1ccccc1)NC(=O)[C@@H](NC(=O)CNC(=O)[C@H](CCC(=O)O)NC(=O)[C@H](C)NC(=O)[C@@H](N)Cc1c[nH]cn1)[C@@H](C)O)[C@@H](C)O)C(C)C)C(C)C)C(=O)N[C@@H](CCC(=O)O)C(=O)N[C@@H](Cc1c[nH]c2ccccc12)C(=O)N[C@@H](CC(C)C)C(=O)N[C@H](C(=O)N[C@@H](CCC(N)=O)C(=O)NCC(=O)N[C@@H](CCCCNC(=O)COCCOCCNC(=O)COCCOCCNC(=O)CC[C@H](NC(=O)CCCCCCCCCOc1ccc(C(=O)O)cc1)C(=O)O)C(=O)NCC(=O)N[C@@H](CCC(=O)O)C(=O)O)C(C)C` [Example 13, N^ε27-[2-[2-[2-[[2-[2-[2-[[(4S)-4-carboxy-4-[10-(4-carboxyphenoxy)decanoylamino]butanoyl]amino]ethoxy]ethoxy]acetyl]amino]ethoxy]ethoxy]acetyl], N^ε36-[2-[2-[2-[[2-[2-[2-[[(4S)-4-carboxy-4-[10-(4-carboxyphenoxy)decanoylamino]butanoyl]amino]ethoxy]ethoxy]acetyl]amino]ethoxy]ethoxy]acetyl]-[Val^25,Arg^26,Lys^27,Glu^30,Gln^34,Lys^36]-GLP-1-(7-37)-peptidyl-Glu] (H-HAEGTFTSDVSSYLEGQAVRK([AEEA-AEEA-γGlu-Decanoyl(10-(4-HOOC-PhO))])FIEWLVQGK([AEEA-AEEA-γGlu-Decanoyl(10-(4-HOOC-PhO))])GE-OH; N-terminus and C-terminus assumed): 126; for `CC[C@H](C)[C@H](NC(=O)[C@H](Cc1ccccc1)NC(=O)[C@H](CCCCNC(=O)COCCOCCNC(=O)COCCOCCNC(=O)CC[C@H](NC(=O)CCCCCCCCCOc1ccc(C(=O)O)cc1)C(=O)O)NC(=O)[C@H](CCCNC(=N)N)NC(=O)[C@@H](NC(=O)[C@H](C)NC(=O)[C@H](CCC(N)=O)NC(=O)CNC(=O)[C@H](CCC(=O)O)NC(=O)[C@H](CC(C)C)NC(=O)[C@H](Cc1ccc(O)cc1)NC(=O)[C@H](CO)NC(=O)[C@H](CO)NC(=O)[C@@H](NC(=O)[C@H](CC(=O)O)NC(=O)[C@H](CO)NC(=O)[C@@H](NC(=O)[C@H](Cc1ccccc1)NC(=O)[C@@H](NC(=O)CNC(=O)[C@H](CCC(=O)O)NC(=O)[C@H](C)NC(=O)[C@@H](N)Cc1c[nH]cn1)[C@@H](C)O)[C@@H](C)O)C(C)C)C(C)C)C(=O)N[C@@H](CCC(=O)O)C(=O)N[C@@H](Cc1c[nH]c2ccccc12)C(=O)N[C@@H](CC(C)C)C(=O)N[C@H](C(=O)N[C@@H](CCCNC(=N)N)C(=O)NCC(=O)N[C@@H](CCCCNC(=O)COCCOCCNC(=O)COCCOCCNC(=O)CC[C@H](NC(=O)CCCCCCCCCOc1ccc(C(=O)O)cc1)C(=O)O)C(=O)NCC(=O)N[C@@H](CCC(N)=O)C(=O)O)C(C)C` [Example 12, N^α(N^ε27-[2-[2-[2-[[2-[2-[2-[[(4S)-4-carboxy-4-[10-(4-carboxyphenoxy)decanoylamino]butanoyl]amino]ethoxy]ethoxy]acetyl]amino]ethoxy]ethoxy]acetyl], N^ε36-[2-[2-[2-[[2-[2-[2-[[(4S)-4-carboxy-4-[10-(4-carboxyphenoxy)decanoylamino]butanoyl]amino]ethoxy]ethoxy]acetyl]amino]ethoxy]ethoxy]acetyl]-[Val^25,Arg^26,Lys^27,Glu^30,Arg^34,Lys^36]-GLP-1-(7-37)-peptidyl)-Gln] (H-HAEGTFTSDVSSYLEGQAVRK([AEEA-AEEA-γGlu-Decanoyl(10-(4-HOOC-PhO))])FIEWLVRGK([AEEA-AEEA-γGlu-Decanoyl(10-(4-HOOC-PhO))])GQ-OH; N-terminus and C-terminus assumed): 68.
